According to patent publication US20230303635A1, “DIAGNOSTIC METHODS AND COMPOSITIONS” (THE REGENTS OF THE UNIVERSITY OF CALIFORNIA, priority 2020, published 2023):
Where two headings read alike, the source gives them in different places.

Columns and labels:
[1] = biological target: receptor binding domain (RBD) of the SARS-CoV-2 spike protein (Severe acute respiratory syndrome coronavirus 2, UniProt P0DTC2); conditions: cited from earlier work
[2] = Fluorescence spectroscopy of gpW FRET constructs upon pH titration
Procedure: Accordingly, the fluorescence integration was employed on this variant. Specifically, an extra cysteine was added at the N-terminal (N-ter), e.g., position 1, and the second cysteine was introduced near the C-terminal (C-ter) by replacing the methionine at position 56. These mutations allow us to chemically label the L7H with a FRET-pair to monitor the end-to-end distance of L7H (L7H-FRET). Another FRET-construct was also designed to measure the distance change between the beta-hairpin and the helix-1. […] In this regard, two cysteines were placed on the M18H-F35H variant by adding one cysteine at the N-ter (position 1) and replacing an aspartate (position 29) with cysteine. […] In both constructs, Alexa-488 maleimide and Alexa-594 maleimide are used as the FRET pair as they have many advantageous features. […]
Proteins samples were prepared at different pH by adding the labeled proteins 20 mM citrate buffer for experiments in the 3-6 pH range, phosphate buffer pH 7, and Tris-HCl buffer for the 8-9 pH range. […] Fluorescence emission spectra were recorded between 630 nm and 740 nm by exciting the ATTO 655 at 620 nm or between 490 nm and 720 nm by exciting the Alexa 488 at 480 nm. The pH titration on L7H-helix was triplicated, and L7H-Cter was replicated five times to calculate the standard deviation due to the concentration dependence of the PET fluorescence technique.

| Molecule | Kd ([1]; read-out: binding affinity (KD) to SARS-CoV-2 S protein) [µM] | Kd ([1]; read-out: binding affinity (Kd) to SARS-CoV-2 spike protein RBD) [µM] | distance change as a function of pH [2] |
| --- | --- | --- | --- |
| GSGSGSTIEEQAKTFLDKANCEAEDLAYQSSLAS [ACE-2 α-helix] | 1 | 0.05 |  |
| L7H: single histidine graft L7H on downhill folding protein gpW (protein, UniProt P68660 1-68, looked up, variant L7H) Head completion protein: MTRQEEHAAARAALHDLMTGKRVATVQKDGRRVEFTATSVSDLKKYIAELEVQTGMTQRRRGPAGFYV |  |  | less than 1 nm |
